6 molecules from ChEMBL document CHEMBL3526044, “Effect of albumin on human liver microsomal and recombinant CYP1A2 activities: impact on in vitro-in vivo extrapolation of drug clearance” (Drug Metab Dispos, 2012) can be followed below.

What is called Ki is the dissociation constant of the complex between target and ligand, obtained from inhibition or displacement. As usually defined, the fraction unbound is the share of the substance not bound to proteins or other matrix. Broadly, the Vmax is the top rate of the reaction or transport when substrate is in excess.

Data set [1] deals with Liver microsome. The experiment in a line: Drug metabolism in human liver microsomes assessed as retention time treated with 25 to 8000 uM lidocaine incubated for 5 mins prior to NADPH addition measured after 25 mins by HPLC analysis. It is filed as ADME. For orientation: Liver microsomes are a subcellular fraction often used to study metabolism.
For data set [2], the target named is T1, Cytochrome P450 1A2 (Rattus norvegicus, UniProt P04799).
T1 sequence (P04799 whole entry): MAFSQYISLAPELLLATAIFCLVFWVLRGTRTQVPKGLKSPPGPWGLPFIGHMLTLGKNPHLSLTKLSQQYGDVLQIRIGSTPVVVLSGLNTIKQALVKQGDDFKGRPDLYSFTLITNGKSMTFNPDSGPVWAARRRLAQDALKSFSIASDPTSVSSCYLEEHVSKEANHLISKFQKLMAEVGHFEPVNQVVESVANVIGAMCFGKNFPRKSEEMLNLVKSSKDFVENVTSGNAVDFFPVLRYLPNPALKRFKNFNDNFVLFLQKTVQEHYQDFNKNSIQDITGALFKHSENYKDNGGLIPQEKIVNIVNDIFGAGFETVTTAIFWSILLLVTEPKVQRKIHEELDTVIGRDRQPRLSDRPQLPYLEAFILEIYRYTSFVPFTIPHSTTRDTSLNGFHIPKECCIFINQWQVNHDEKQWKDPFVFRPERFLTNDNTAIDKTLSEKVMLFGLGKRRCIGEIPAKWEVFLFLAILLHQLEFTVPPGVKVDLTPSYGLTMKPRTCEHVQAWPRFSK
In words: Competitive inhibition of rat recombinant CYP1A2 expressed in Escherichia coli assessed as inhibition of PHEN O-deethylation by dixon plot analysis. It counts as ADME.

The nature of data set [3]: (§1) Drug metabolism in human liver microsomes assessed as enzyme-mediated O-deethylation incubated for 5 mins prior to NADPH addition measured after 25 mins by Michaelis-Menten equation analysis in presence of BSA. It counts as ADME. The settings on record: liver microsomes.
In data set [4] the test system is Liver microsome. Described as §1. It is filed as ADME. The note with it: microsomes, 25 min.
Data set [5] deals with T1, Cytochrome P450 1A2. In words: Binding affinity to rat recombinant CYP1A2 expressed in Escherichia coli assessed as fraction unbound by equilibrium dialysis method. On the technique in general: In equilibrium dialysis free small molecules cross a membrane that holds back macromolecules.
Data set [6] addresses T1, Cytochrome P450 1A2. The experiment in a line: Binding affinity to rat recombinant CYP1A2 expressed in Escherichia coli assessed as fraction unbound by equilibrium dialysis method in presence of BSA. It counts as ADME.
Data set [7] can be described thus: Fraction unbound in human liver microsomes by equilibrium dialysis method.
A short description of data set [8]: Fraction unbound in human liver microsomes by equilibrium dialysis method in presence of BSA.
A short description of data set [9]: (§2) Drug metabolism in human liver microsomes assessed as enzyme-mediated O-deethylation incubated for 5 mins prior to NADPH addition measured after 25 mins by Michaelis-Menten equation analysis. It is filed as ADME. The settings on record: liver microsomes.
Data set [10] relates to Liver microsome. Described as §2. It counts as ADME. The note with it: microsomes, 25 min.
In data set [11] the test system is Homo sapiens. The experiment in a line: Intrinsic clearance in healthy human at 250 mg, iv. It counts as ADME, organism-based. The settings on record: in vivo.
The test system of data set [12] is Homo sapiens. The experiment in a line: Hepatic clearance in healthy human at 250 mg, iv. The note with it: in vivo. It counts as ADME, organism-based, Liver.
Data set [13] deals with Liver microsome. In words: Drug metabolism in human liver microsomes assessed as retention time at 2 to 2000 uM incubated for 5 mins prior to NADPH addition measured after 25 mins by HPLC analysis. It counts as ADME.
A short description of data set [14]: Stability of the compound assessed as retention time by HPLC analysis.
Substrate in data set [15]: CCOc1ccc(NC(C)=O)cc1
The experiment in a line: Activity of rat recombinant CYP1A2 expressed in Escherichia coli assessed as enzyme-mediated O-deethylation after 7.5 mins by Michaelis-Menten equation analysis in presence of BSA. It counts as ADME.

Substrate in data set [16]: CCOc1ccc(NC(C)=O)cc1
In words: Activity of rat recombinant CYP1A2 expressed in Escherichia coli assessed as enzyme-mediated O-deethylation after 7.5 mins by Michaelis-Menten equation analysis. It counts as ADME.

As to `CCNCC(=O)Nc1c(C)cccc1C`, in the data set with Liver microsome [1], the Retention_time worked out at 4.4 min.

As to `CCCCC/C=C\C/C=C\C/C=C\C/C=C\CCCC(=O)O`, on Cytochrome P450 1A2 [2], the Ki turned out to be 4.7 µM.

With `CCCCCCCC/C=C\CCCCCCCC(=O)[O-].[Na+]`, the Ki at Cytochrome P450 1A2 [2] came out at 16.7 µM.

As to `CCOc1ccc(NC(C)=O)cc1` [PHENACETIN], the Km at 25 min in data set [3] (read-out: KmH) was determined as 6.6 µM; in [3] (read-out: KmL), 881 µM; in data set [9] (read-out: KmH) it was 27.8 µM; in [9] (read-out: KmL) it was 867 µM. Further, the values for the VmaxH in the data set on Liver microsome [4] and in the data set on Liver microsome [10] were 772 pmol/min and 811 pmol/min, respectively. The VmaxL with Liver microsome [4] amounted to 820 pmol/min; in the data set on Liver microsome [10], 523 pmol/min. Also, the fraction unbound on Cytochrome P450 1A2 [5] is 0.98; at Cytochrome P450 1A2 [6], 0.8; in data set [7], 0.98; in data set [8] it was 0.78. Moreover, in the data set with Homo sapiens [11], the CL is 933 L/h. Moreover, the CLH in the data set with Homo sapiens [12] is 71 L/h. Besides, the Retention_time with Liver microsome [13] is given as 13 min; in [14], 3.6 min.

In the case of `CCCCC/C=C\C/C=C\CCCCCCCC(=O)O` [SODIUM LINOLATE], the Ki on Cytochrome P450 1A2 [2] is 13.6 µM.

B1: Cytochrome P450 1A2 (Rattus norvegicus) (protein)
chain: MAFSQYISLAPELLLATAIFCLVFWVLRGTRTQVPKGLKSPPGPWGLPFIGHMLTLGKNPHLSLTKLSQQYGDVLQIRIGSTPVVVLSGLNTIKQALVKQGDDFKGRPDLYSFTLITNGKSMTFNPDSGPVWAARRRLAQDALKSFSIASDPTSVSSCYLEEHVSKEANHLISKFQKLMAEVGHFEPVNQVVESVANVIGAMCFGKNFPRKSEEMLNLVKSSKDFVENVTSGNAVDFFPVLRYLPNPALKRFKNFNDNFVLFLQKTVQEHYQDFNKNSIQDITGALFKHSENYKDNGGLIPQEKIVNIVNDIFGAGFETVTTAIFWSILLLVTEPKVQRKIHEELDTVIGRDRQPRLSDRPQLPYLEAFILEIYRYTSFVPFTIPHSTTRDTSLNGFHIPKECCIFINQWQVNHDEKQWKDPFVFRPERFLTNDNTAIDKTLSEKVMLFGLGKRRCIGEIPAKWEVFLFLAILLHQLEFTVPPGVKVDLTPSYGLTMKPRTCEHVQAWPRFSK
B1: in [15], the Km was 3.8 µM and the Vmax was 4.65e-05 µmol/min. In addition, in data set [16], the Km turned out to be 13.6 µM and the maximum rate (Vmax) came to 3.97e-05 µmol/min.
